Data on 39 compounds can be found in US20240150377A1, “MODULATORS OF CYSTIC FIBROSIS TRANSMEMBRANE CONDUCTANCE REGULATOR” (VERTEX PHARMACEUTICALS INCORPORATED, priority 2020, published 2024).

This assay addresses T1, CFTR (Homo sapiens, UniProt P13569, DEL508-508).
T1 construct: endogenous in cells; host or cells: primary human bronchial epithelial cells from CF subjects (F508del/MF-HBE), differentiated at air-liquid interface
Kind of assay: HBE2 assay: Ussing chamber assay of CFTR-mediated short-circuit currents. It is filed as cell-based. The conditions noted are these: F508del/MF-HBE cells, 18-24 hours, 20% human serum; for Emax: read-out: HBE2 Max activity (%). In short, it runs like this: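 F508del/MF-HBE cultured >14 days at air-liquid interface, mounted in Ussing chambers; transepithelial short-circuit current recorded under voltage clamp (Vhold=0 mV) at 37 °C. CFTR-mediated ISC (μA/cm^2) taken as peak forskolin response relative to steady-state current after inhibition; corrector activity assessed this way.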

[1] abbreviates: 3 μM corrector, with 44 nM potentiator.

T1 sequence (P13569 with tags, fused parts or gaps DEL508-508): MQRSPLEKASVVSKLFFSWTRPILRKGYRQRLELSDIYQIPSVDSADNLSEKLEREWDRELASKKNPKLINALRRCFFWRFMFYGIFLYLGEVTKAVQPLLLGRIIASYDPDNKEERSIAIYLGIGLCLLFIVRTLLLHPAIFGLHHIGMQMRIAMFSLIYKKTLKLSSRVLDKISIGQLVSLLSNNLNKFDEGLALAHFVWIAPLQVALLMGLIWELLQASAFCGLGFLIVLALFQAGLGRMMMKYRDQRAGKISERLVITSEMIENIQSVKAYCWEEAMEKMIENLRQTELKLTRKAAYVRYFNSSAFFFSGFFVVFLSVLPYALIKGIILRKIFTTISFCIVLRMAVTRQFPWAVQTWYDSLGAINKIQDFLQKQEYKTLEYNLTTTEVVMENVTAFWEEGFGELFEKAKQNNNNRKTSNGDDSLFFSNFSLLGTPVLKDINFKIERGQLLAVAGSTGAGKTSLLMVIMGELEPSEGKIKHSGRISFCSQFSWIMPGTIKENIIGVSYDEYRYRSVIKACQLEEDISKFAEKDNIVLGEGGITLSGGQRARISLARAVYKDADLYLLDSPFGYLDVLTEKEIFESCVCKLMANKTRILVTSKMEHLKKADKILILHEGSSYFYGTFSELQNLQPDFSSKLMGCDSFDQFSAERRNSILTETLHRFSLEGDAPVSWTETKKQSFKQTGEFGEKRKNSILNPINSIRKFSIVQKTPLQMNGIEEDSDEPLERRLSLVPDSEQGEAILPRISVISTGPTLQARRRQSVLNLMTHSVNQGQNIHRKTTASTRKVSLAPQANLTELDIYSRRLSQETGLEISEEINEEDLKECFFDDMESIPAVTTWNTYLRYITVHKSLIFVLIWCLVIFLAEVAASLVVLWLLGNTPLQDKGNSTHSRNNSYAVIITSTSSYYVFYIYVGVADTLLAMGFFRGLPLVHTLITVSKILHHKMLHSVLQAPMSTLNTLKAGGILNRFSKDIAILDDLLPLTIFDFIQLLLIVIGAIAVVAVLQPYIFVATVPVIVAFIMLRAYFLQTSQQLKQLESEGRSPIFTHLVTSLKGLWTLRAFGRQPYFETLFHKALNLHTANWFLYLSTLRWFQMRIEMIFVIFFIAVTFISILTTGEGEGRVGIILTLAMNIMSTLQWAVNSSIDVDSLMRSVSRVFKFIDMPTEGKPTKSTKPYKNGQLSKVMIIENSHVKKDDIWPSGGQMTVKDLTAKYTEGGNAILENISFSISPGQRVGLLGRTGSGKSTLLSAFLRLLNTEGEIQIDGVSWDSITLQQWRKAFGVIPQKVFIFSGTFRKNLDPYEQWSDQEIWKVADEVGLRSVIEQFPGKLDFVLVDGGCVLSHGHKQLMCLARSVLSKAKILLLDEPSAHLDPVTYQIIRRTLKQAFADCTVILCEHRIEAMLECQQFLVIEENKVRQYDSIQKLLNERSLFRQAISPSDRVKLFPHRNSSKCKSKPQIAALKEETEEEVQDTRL

`Cc1cccc(C)c1-c1cc2nc(n1)NS(=O)(=O)c1cccc(c1)C(=O)N(Cc1cc(C(C)C)n(C)n1)[C@H](CC(C)(C)C)CO2` [Compound 1413]: the “HBE2 Activity at 3 μM (%)” value (3 μM, with 44 nM potentiator) is “++ (++ is 30-60%)”.
As for `Cc1cccc(C)c1-c1cc2nc(n1)NS(=O)(=O)c1cccc(c1)C(=O)N(Cc1cnc3cc(C(C)C)n(C)c3n1)[C@H](CC(C)(C)F)CO2` [Compound 1819], the “HBE2 Activity at 3 μM (%)” value under setting [1] is recorded as “+++ (+++ is >60+)”.
In the case of `Cc1cccc(C)c1-c1cc2nc(n1)NS(=O)(=O)c1cccc(c1)C(=O)N(Cc1cncc(N3CCOC4CCCC43)n1)[C@H](CC(C)(C)C)CO2` (stereo partly drawn) [Compound 1692], the “HBE2 Activity at 3 μM (%)” value (3 μM, with 44 nM potentiator) is reported as “+++ (+++ is >60+)”.
With `Cc1cccc(C)c1-c1cc2nc(n1)NS(=O)(=O)c1cccc(c1)C(=O)N(Cc1nc(N(C)C3CCC3)c(C)nc1C)[C@H](CC(C)(C)C)CO2` [Compound 1651], the “HBE2 Activity at 3 μM (%)” value (3 μM, with 44 nM potentiator) was “+++ (+++ is >60+)”.
In the case of `Cc1cccc(C)c1-c1cc2nc(n1)NS(=O)(=O)c1cc(n(C)n1)C(=O)N(Cc1cncc(N(C)C3CCC3)n1)[C@H](CC(C)(C)C)CO2` [Compound 1944], under setting [1], the “HBE2 Activity at 3 μM (%)” value was “+++ (+++ is >60+)”.
Turning to `Cc1cccc(C)c1-c1cc2nc(n1)NS(=O)(=O)c1cccc(c1)C(=O)N(Cc1cncc(N3CC[C@H]4CN(C(=O)OC(C)C)CC43)n1)[C@H](CC(C)(C)C)CO2` (stereo in doubt) [Compound 1664], the “HBE2 Activity at 3 μM (%)” value (3 μM, with 44 nM potentiator) is recorded as “+++ (+++ is >60+)”.
For `Cc1cccc(C)c1-c1cc2nc(n1)NS(=O)(=O)c1cccc(c1)C(=O)N(Cc1cncc(N(C)[C@H]3C[C@H](C)C3)n1)[C@H](CCC(C)(C)C)CO2` [Compound 1885], under setting [1], the “HBE2 Activity at 3 μM (%)” value was “+++ (+++ is >60+)”.
Take `Cc1cccc(C)c1-c1cc2nc(n1)NS(=O)(=O)c1cccc(c1)C(=O)N(Cc1cncc(N(C)CCN(C)C(=O)OC(C)C)n1)[C@H](CC(C)(C)C)CO2` [Compound 1662]: the “HBE2 Activity at 3 μM (%)” value (3 μM, with 44 nM potentiator) is given as “+++ (+++ is >60+)”.
On to `CCN(CC)c1cncc(CN2C(=O)c3cccc(c3)S(=O)(=O)Nc3nc(cc(-c4c(C)cccc4C)n3)OC[C@H]2CC(C)(C)C)n1` [Compound 1697], for which the “HBE2 Activity at 3 μM (%)” value (3 μM, with 44 nM potentiator) is “+++ (+++ is >60+)”.
For `Cc1cccc(C)c1-c1cc2nc(n1)NS(=O)(=O)c1cccc(c1)C(=O)N(Cc1cncc(N3CCCC3CC(=O)N(C)C)n1)[C@H](CC(C)(C)C)CO2` (stereo partly drawn) [Compound 1658], the “HBE2 Activity at 3 μM (%)” value (3 μM, with 44 nM potentiator) was “+++ (+++ is >60+)”.
Regarding `Cc1cccc(C)c1-c1cc2nc(n1)NS(=O)(=O)c1cccc(c1)C(=O)N(Cc1ncc(N3CCC(F)(F)C3)cn1)[C@H](CC1(C)CC1)CO2` [Compound 1548], the “HBE2 Activity at 3 μM (%)” value (3 μM, with 44 nM potentiator) is “+++ (+++ is >60+)”.
Take `CO[C@@H]1CC[C@@H]1N(C)c1cncc(CN2C(=O)c3cccc(c3)S(=O)(=O)Nc3nc(cc(-c4c(C)cccc4C)n3)OC[C@H]2CC(C)(C)C)n1` (stereo in doubt) [Compound 1607]: the “HBE2 Activity at 3 μM (%)” value (3 μM, with 44 nM potentiator) is reported as “+++ (+++ is >60+)”.
Consider `Cc1cccc(C)c1-c1cc2nc(n1)NS(=O)(=O)c1cccc(c1)C(=O)N(Cc1cncc(N3CCCC3C(C)C)n1)[C@H](CC1CCCCC1)CO2` (stereo partly drawn) [Compound 1824], for which the “HBE2 Activity at 3 μM (%)” value under setting [1] is on record as “+++ (+++ is >60+)”.
For `Cc1cccc(C)c1-c1cc2nc(n1)NS(=O)(=O)c1cccc(c1)C(=O)N(Cc1cnc3c(n1)N(C)C(C)(C)C3)[C@H](CC(C)(C)C)CO2` [Compound 1883], the “HBE2 Activity at 3 μM (%)” value under setting [1] is “+++ (+++ is >60+)”.
Consider `Cc1cccc(C)c1-c1cc2nc(n1)NS(=O)(=O)c1cccc(c1)C(=O)N(Cc1coc(N(C)C3CC(F)(F)C3)n1)[C@H](CC(C)(C)C)CO2` [Compound 1647], for which, where the note is “3 μM, with 44 nM potentiator”, the “HBE2 Activity at 3 μM (%)” value was “+++ (+++ is >60+)”.
For the compound `CCC(C)(C)C[C@@H]1COc2cc(-c3c(C)cccc3C)nc(n2)NS(=O)(=O)c2cccc(c2)C(=O)N1Cc1cncc(N2CCCC[C@H]2C)n1` [Compound 1862], under setting [1], the “HBE2 Activity at 3 μM (%)” value is listed as “++ (++ is 30-60%)”.
Regarding `Cc1cccc(C)c1-c1cc2nc(n1)NS(=O)(=O)c1cccc(c1)C(=O)N(Cc1cncc(N3CC4OCC[C@@H]43)n1)[C@H](CC(C)(C)C)CO2` (stereo in doubt) [Compound 1629], the “HBE2 Activity at 3 μM (%)” value (3 μM, with 44 nM potentiator) is listed as “+++ (+++ is >60+)”.
With `Cc1cccc(C)c1-c1cc2nc(n1)NS(=O)(=O)c1cccc(c1)C(=O)N(Cc1cnc3cc(C(C)C)n(C)c3n1)[C@H](C[C@H]1CCCOC1)CO2` [Compound 1931], under setting [1], the “HBE2 Activity at 3 μM (%)” value is “+++ (+++ is >60+)”.
The same measure, in the same setting: the result for `Cc1cccc(C)c1-c1cc2nc(n1)NS(=O)(=O)c1cccc(c1)C(=O)N(Cc1cncc(C3CCCCO3)n1)[C@H](CCC(C)(C)C)CO2` (stereo in doubt) [Compound 1880] reads “+++ (+++ is >60+)”.
On to `CCn1c(C(C)C)cc2ncc(CN3C(=O)c4cccc(c4)S(=O)(=O)Nc4nc(cc(-c5c(C)cccc5C)n4)OC[C@H]3COC(C)C)nc21` [Compound 1933], for which the “HBE2 Activity at 3 μM (%)” value under setting [1] is listed as “+++ (+++ is >60+)”.
Turning to `Cc1cccc(C)c1-c1cc2nc(n1)NS(=O)(=O)c1cccc(c1)C(=O)N(Cc1cc(N)cc(N(C)C3CCC3)n1)[C@H](CC(C)(C)C)CO2` [Compound 1928], the “HBE2 Activity at 3 μM (%)” value under setting [1] is listed as “+++ (+++ is >60+)”.
As for `CC[C@H](C)[C@@H]1COc2cc(-c3c(C)cccc3C)nc(n2)NS(=O)(=O)c2cccc(c2)C(=O)N1Cc1cncc(N(C)C2CCC2)n1` [Compound 1703], for the setting “with 44 nM potentiator”, the EC50 was below 1000 nM and the Emax is above 60%.
`Cc1cccc(C)c1-c1cc2nc(n1)NS(=O)(=O)c1cccc(c1)C(=O)N(Cc1cccc([C@@H](C)N3CCCC3)n1)[C@H](CC(C)(C)C)CO2` [Compound 1588]: under “3 μM, with 44 nM potentiator”, the “HBE2 Activity at 3 μM (%)” value was “+++ (+++ is >60+)”.
Consider `Cc1cccc(C)c1-c1cc2nc(n1)NS(=O)(=O)c1cccc(c1)C(=O)N(Cc1cncc(N(C)C3CCC3)c1)[C@H](CC(C)(C)C)CO2` [Compound 1927], for which the “HBE2 Activity at 3 μM (%)” value under setting [1] is recorded as “+++ (+++ is >60+)”.
Turning to `Cc1cccc(C)c1-c1cc2nc(n1)NS(=O)(=O)c1cccc(c1)C(=O)N(Cc1cncc(N(C)C3CC(F)(F)C3)n1)[C@H](CCC(C)(C)C)CO2` [Compound 1815], under setting [1], the “HBE2 Activity at 3 μM (%)” value was “+++ (+++ is >60+)”.
Turning to `CCCOc1cnc(CN2C(=O)c3cccc(c3)S(=O)(=O)Nc3nc(cc(-c4c(C)cccc4C)n3)OC[C@H]2CC2(C)CC2)nc1` [Compound 1562], the “HBE2 Activity at 3 μM (%)” value (3 μM, with 44 nM potentiator) is recorded as “+++ (+++ is >60+)”.
For `CO[C@H]1C[C@H](CN(C)c2cncc(CN3C(=O)c4cccc(c4)S(=O)(=O)Nc4nc(cc(-c5c(C)cccc5C)n4)OC[C@H]3CC(C)(C)C)n2)C1` (stereo in doubt) [Compound 1632], the “HBE2 Activity at 3 μM (%)” value (3 μM, with 44 nM potentiator) is “+++ (+++ is >60+)”. For the same compound, where the note is “with 44 nM potentiator”, the EC50 was below 1000 nM and the Emax is above 60%.
Turning to `Cc1cccc(C)c1-c1cc2nc(n1)NS(=O)(=O)c1cccc(c1)C(=O)N(Cc1cnc(N(C)C3CCC3)cn1)[C@H](CC(C)(C)C)CO2` [Compound 1612], for the setting “3 μM, with 44 nM potentiator”, the “HBE2 Activity at 3 μM (%)” value is “+++ (+++ is >60+)”.
For `COC[C@@H](C)N(C)c1cncc(CN2C(=O)c3cccc(c3)S(=O)(=O)Nc3nc(cc(-c4c(C)cccc4C)n3)OC[C@H]2CCC(C)(C)C)n1` [Compound 1851], the “HBE2 Activity at 3 μM (%)” value under setting [1] was “+++ (+++ is >60+)”.
For `CC[C@@H](C)N(C)c1cncc(CN2C(=O)c3cccc(c3)S(=O)(=O)Nc3nc(cc(-c4c(C)cccc4C)n3)OC[C@H]2CC(C)(C)C)n1` (stereo in doubt) [Compound 1672], the “HBE2 Activity at 3 μM (%)” value (3 μM, with 44 nM potentiator) is on record as “+++ (+++ is >60+)”. Moreover, where the note is “with 44 nM potentiator”, the concentration for a half-maximal effect (EC50) is below 1000 nM and the Emax was above 60%.
In the case of `Cc1cccc(C)c1-c1cc2nc(n1)NS(=O)(=O)c1cccc(c1)C(=O)N(Cc1ncc(N3CC(C)(C)C3)cn1)[C@H](CC(C)C)CO2` [Compound 1563], the “HBE2 Activity at 3 μM (%)” value (3 μM, with 44 nM potentiator) was “+++ (+++ is >60+)”.
With `COC[C@@H]1CCN1c1cncc(CN2C(=O)c3cccc(c3)S(=O)(=O)Nc3nc(cc(-c4c(C)cccc4C)n3)OC[C@H]2CC(C)(C)F)n1` [Compound 1802], the “HBE2 Activity at 3 μM (%)” value under setting [1] is “+++ (+++ is >60+)”.
In the case of `Cc1cccc(C)c1-c1cc2nc(n1)NS(=O)(=O)c1cccc(c1)C(=O)N(Cc1ncc(OC(C)C)cn1)[C@H]([C@@H](C)C(C)C)CO2` (stereo in doubt) [Compound 1573], under “3 μM, with 44 nM potentiator”, the “HBE2 Activity at 3 μM (%)” value is listed as “+++ (+++ is >60+)”.
As to `Cc1cccc(C)c1-c1cc2nc(n1)NS(=O)(=O)c1cccc(c1)C(=O)N(Cc1cncc(N(C)C3CCC3)n1)[C@H](CC1(C)CCC1)CO2` [Compound 1683], the “HBE2 Activity at 3 μM (%)” value (3 μM, with 44 nM potentiator) is reported as “+++ (+++ is >60+)”. Besides, where the note is “with 44 nM potentiator”, the EC50 was below 1000 nM and the Emax is above 60%.
For `Cc1cccc(C)c1-c1cc2nc(n1)NS(=O)(=O)c1cccc(c1)C(=O)N(Cc1cncc(N(C)CC(C)C)n1)[C@H](CCC(C)(C)C)CO2` [Compound 1791], under setting [1], the “HBE2 Activity at 3 μM (%)” value is reported as “+++ (+++ is >60+)”.
In the case of `Cc1cccc(C)c1-c1cc2nc(n1)NS(=O)(=O)c1cccc(c1)C(=O)N(Cc1cncc(N(C)CCOC(=O)N(C)C)n1)[C@H](CC(C)(C)C)CO2` [Compound 1667], where the note is “3 μM, with 44 nM potentiator”, the “HBE2 Activity at 3 μM (%)” value is “+++ (+++ is >60+)”.
Take `Cc1cccc(C)c1-c1cc2nc(n1)NS(=O)(=O)c1cccc(c1)C(=O)N(Cc1cncc(N3CCC[C@H]4CC[C@H]43)n1)[C@H](CC(C)(C)C)CO2` (single isomer, unassigned) [Compound 1316]: the “HBE2 Activity at 3 μM (%)” value (3 μM, with 44 nM potentiator) was “+++ (+++ is >60+)”.
`Cc1cccc(C)c1-c1cc2nc(n1)NS(=O)(=O)c1cccc(c1)C(=O)N(Cc1cncc(N3CCC[C@H]3C)n1)[C@H](CC(C)(C)F)CO2` [Compound 1803]: under setting [1], the “HBE2 Activity at 3 μM (%)” value was “+++ (+++ is >60+)”.
With `Cc1cccc(C)c1-c1cc2nc(n1)NS(=O)(=O)c1cccc(c1)C(=O)N(Cc1cncc(N3CCC[C@H]3C(C)C)n1)[C@H](CCC(C)(C)C)CO2` [Compound 1716], the “HBE2 Activity at 3 μM (%)” value under setting [1] was “+++ (+++ is >60+)”. For the same compound, where the note is “corrector at a range of concentrations with 44 nM potentiator”, the EC50 was below 1000 nM. In addition, the Emax (with 44 nM potentiator) is above 60%.
